Reference: patent US20230381163A1, “DABIGATRAN COMPOSITIONS AND METHODS OF TREATING AGE-RELATED MACULAR DEGENERATION” (The United States Government As Represented By The …, priority 2022, published 2023)
“Also recorded” adds a separate entry of the source.

What was measured:
[1] = tested on: AMD diagnosis in Medicare patients; experiment: MarketScan retrospective analysis of AMD diagnosis in dabigatran-exposed vs matched control Medicare patients; assay type: in vivo, human
Excerpt: Material and methods. MarketScan analysis: Population. A total of 41,860 dabigatran-exposed and 41,860 non-exposed controls, for a total of 83,720 Medicare patients were extracted from MarketScan® data from 2010-2015 and used in the analysis. Patients with an inpatient or outpatient record with a diagnosis of AMD (wet or dry) for the baseline period were excluded from inclusion in the data set. Patients who filled at least one prescription of dabigatran during the 2011-2012 exposure period were included in the dabigatran group. The date of the first filled prescription was designated as the Index Date. […] The first patient record date in randomly selected records from 2011 or 2012 was chosen as the Index Date for control group patients. Patients with <90 days of insurance coverage in the baseline period or <120 days of coverage in the study (exposure) period were excluded from the final cohort. The exposed and control patients were matched by age, sex, state of residence, Index Date, days in baseline period, and days in study period using 1:1 propensity score mating with a greedy algorithm and a caliper distance of 0.2.
Survival and Statistical Analysis. Survival analysis was used (Schnabolk et al., 2019) to show differences in time until AMD diagnosis among dabigatran users and control subjects using the […] procedure. AMD diagnoses were identified using ICD-9 codes 362.5 (unspecified macular degeneration), 362.51 (dry AMD), and 362.52 (wet AMD). A period of ˜5 years (from Jul. 1, 2010, to Dec. 31, 2015) was used for this analysis, and preexisting AMD diagnosis was ruled out by requiring that the subjects be AMD free over the first ˜600 days (designated as baseline days or Base Days). Data on the matched control and dabigatran population were analyzed using multivariable logistic and Cox regression. Specifically, the odds of being diagnosed with AMD during the follow-up time, controlling for days of dabigatran exposure, and the proportional hazard rates of obtaining an AMD diagnosis in the dabigatran or control population as well as any baseline differences in demographics or comorbidities was compared (Charlson or Elixhouser diagnoses).
Results. Association between Dabigatran Use and AMD Risk. The patient population consisted of 83,720 Medicare patients extracted from MarketScan® data from 2010-2015 as described herein, with 41,860 dabigatran-exposed and 41,860 non-exposed controls. The controls were matched on 33 baseline variables, including demographics and clinical characteristics (Schnabolk, G., et al. (2019). Invest Ophthalmol Vis Sci 60, 3520-3526) (Table 1).

[2] = tested on: choroidal neovascularization (CNV) lesions; experiment: Laser-induced CNV lesion size by OCT in mice fed dabigatran chow; assay type: in vivo, C57BL/6J mice
Excerpt: Mouse model of choroidal neovascularization (CNV): Choroidal neovascularization. C57BL/6J mice (males and females) from the same colony, to guarantee identical microbiome ([…] al., 2016), were recruited to the study at 3 months of age. Argon laser photocoagulation (532 nm, 100 μm spot size, 0.1 s duration, 100 mW) was used to generate 4 laser spots around the optic nerve of each eye (Rohrer et al., 2009), utilizing bubble formation at the site of the laser burn as the inclusion criteria for successful Bruch's membrane rupture (Nozaki et al., 2006). Dabigatran exposure. Mice were fed standard chow fortified with dabigatran etexilate (10 […] of chow; Boehringer Ingelheim). Mice were either fed dabigatran chow during the angiogenesis period of CNV (starting 2 days prior to CNV induction through day 6 when the tissues were collected), or during the wound healing period (starting after the OCT analysis to ensure CNV growth on day 5 through day 23). Optical Coherence Tomography (OCT) analysis. OCT was used to quantify CNV lesion size on day 5 post laser treatment (Schnabolk, G., et al. (2014). Exp Eye Res 129, 18-23; Schnabolk, G., et al. (2015). Invest Ophthalmol Vis Sci; and Coughlin, B., et al. (2016). Sci Rep 6, 23794), or in weekly intervals to document recovery from fibrosis (Parsons, N., et al. (2019). Mol Immunol 108, 8-12) using an SD-OCT Bioptigen® Spectral Domain Ophthalmic Imaging System (Bioptigen Inc., Durham NC). Mice were anesthetized prior to imaging, eyes kept hydrated with normal saline, and body temperature was carefully monitored to prevent anesthesia-induced cataracts. The methods for imaging and analysis have been described (Schnabolk, G., et al. (2014). Exp Eye Res 129, 18-23; Schnabolk, G., et al. (2015). Invest Ophthalmol Vis Sci; Coughlin, B., et al. (2016). Sci Rep 6, 23794; and Parsons, N., et al. (2019). Mol Immunol 108, 8-). Based on the size of the individual pixels (1.6×1.6 μm), the lesion sizes were calculated.

[3] = tested on: CTGF expression in ARPE-19 cells; experiment: Thrombin-induced CTGF expression in ARPE-19 cell lysates (western blot); conditions: dabigatran 10 μM, thrombin 1 U/mL
Experimental: Cell culture experiments: Cells. Human ARPE-19 (ATCC® CRL-2302™; American Type Culture Collection, Manassas VA) cells were cultured in DMEM cell culture media (Gibco/ThermoFisher Scientific) containing high glucose DMEM with D-glucose (4.5 g/L), L-glutamine, sodium pyruvate (110 mg/L), Penicillin and Streptomycin (1×) and 10% of FBS. Cells (<passage 10 after purchase) were expanded in T75 cell culture flasks at 37° C., in the presence of 5% CO2. Confluent cells were trypsinized with 0.05% trypsin (Gibco), and equal numbers of cells were seeded on 6-well transwell filters/plate (Costar). […] Integrity of the cell monolayer was assessed by Transepithelial resistance (TER) measurements using an EVOM volt-ohmmeter (World Precision Instruments) four weeks after plating. RPE monolayers with a stable TER repeatedly measured as ˜40-45 S2 cm 2 were used for these experiments.
Treatments. Prior to each experiment, the cell monolayer was washed with serum-free medium (SFM) and maintained in SFM for 24 hours. […] Treatments were performed on the apical side of the transwell membrane, which represents the retinal side of the RPE in vivo. Some of the cells were treated with thrombin (EMD Millipore Corp), complement components C3a, C5a (Complement Technology), thrombin agonist PAR1-AP (Sigma-Aldrich; amino acid sequence SFLLRN (SEQ ID NO: 1)), thrombin inhibitor dabigatran etexilate (Sigma-Aldrich), C3 inhibitor compstatin (R&D Systems), AP inhibitor TT30 (Alexion Therapeutics), a protease inhibitor alpha1-antitrypsin (Sigma-Aldrich), and the thrombin receptor proteinase activated receptor 1 inhibitor SCH 79797 (Sigma-Aldrich). Treatments were performed 60 min prior to the addition of thrombin. Cell culture supernatant and lysate were collected after specific time points or after 24 hrs of treatment and stored at −20° C. for later use.
Western blotting. […] Cell lysates were collected in RIPA cell lysis buffer containing 150 mM NaCl, 1.0% IGEPAL® CA-630, 0.5% sodium deoxycholate, 0.1% SDS, 50 mM Tris (pH 8.0) (Sigma-Aldrich) in presence of 1×protease inhibitor (Sigma-Aldrich). Equal amount of each samples were loaded on 4-20% Criterion™ TGX™ precast gels (Bio-Rad Laboratories, Inc.) (Annamalai, B., et al. (2020). Invest Ophthalmol Vis Sci 61, 45). Proteins were transferred to a nitrocellulose membrane and incubated in primary antibody followed by appropriate secondary antibodies coupled to peroxidase, followed by band development and detection using Clarity™ Western ECL blotting substrate (Bio-Rad Laboratories, Inc.) and chemiluminescent detection. Protein bands were scanned and densities quantified using ImageJ software. The following antibodies were used: C3a (1:1000; Complement Technology), C5a (1:1000; Abcam), connective tissue growth factor/CTGF (1:1000; Abcam), C3d anti-C3d (clone 11, 1:1000; generation of the antibody is described in (Thurman, J. M., et al. (2013). J Clin Invest 123, 2218-2230)), VEGF (1:1000, Santa Cruz Biotechnology, Inc.), β-actin (1:2000; Cell Signaling Technology) and concentrations selected based on the data sheet recommendations.
ARPE-19 cell monolayers were treated with thrombin (0.5-10 U/ml) and cell lysates were collected and analyzed for CTGF levels at 4 hrs post treatment by western blotting.

[4] = tested on: C3d and C5b-9 deposition on ARPE-19 cells; experiment: C3d and MAC (C5b-9) deposition on ARPE-19 cell surfaces (immunofluorescence); conditions: 10 μM, compared with thrombin-treated cells (20 U/mL)
Experimental: ARPE-19 cells were grown on transwell membranes in 6 well plates (Thurman, J. M., et al. (2009). J Biol Chem 284, 16939-16947), treated with thrombin and inhibitors, and fixed in 4% paraformaldehyde for 15 min at room temperature. Primary antibodies against C5b-9 (1:200, Abcam) and C3d (1:100) (Thurman, J. M., et al. (2013). J Clin Invest 123, 2218-2230) were diluted in blocking buffer (10% normal goat serum, 3% BSA, 0.4% Triton X-100 in PBS) and cells were incubated for overnight at 4° C., followed by washes and incubation with goat anti-rabbit Alexa Fluor® 568—conjugated IgG or donkey anti-goat Alexa Fluor® 488-conjugated secondary antibodies (1:500; Thermo Fisher Scientific), respectively. Nuclei were identified with DAPI (Sigma-Aldrich). Transwell membranes were covered with aqua-mount mounting media (Thermo Scientific), cover slipped and photographed (Olympus 1X73 Research Inverted Microscope equipped with cellSens imaging software).
First, it was tested whether thrombin results in deposition of C3d and the assembly of MAC on ARPE-19 cell surfaces. ARPE-19 cell monolayers were treated apically with thrombin and deposition of MAC (C5b-9; red) and C3d (green) were examined by immunofluorescence staining (FIG. 4A).

[5] = 1-2 years exposure to dabigatran
[6] = 2+ years exposure to dabigatran

CCCCCCOC(=O)NC(=N)c1ccc(NCc2nc3cc(C(=O)N(CCC(=O)OCC)c4ccccn4)ccc3n2C)cc1 was tested, and the “% AMD per study year” value [1, 5] was 3.25%, the “% patients with a wet AMD diagnosis” value [1, 5] was 0.90% and the “% patients with an AMD diagnosis” value [1, 5] was 10.11%. The “% wet AMD per study year” value [1, 5] was 0.26%, the “risk of AMD by exposure strata (odds ratio vs controls)” value (shortened to “risk of AMD … (odds ratio vs controls)”) ([1]; 1-2 years of dabigatran) was 0.64 and the “% AMD per study year” value [1, 6] was 3.00%. The “% patients with a wet AMD diagnosis” value [1, 6] was 1.35%, the “% patients with an AMD diagnosis” value [1, 6] was 12.26% and the “% wet AMD per study year” value [1, 6] was 0.29%. For the same compound, the “risk of AMD … (odds ratio vs controls)” value ([1]; 2+ years of dabigatran) was 0.64, the “% AMD per study year” value ([1]; <1 year exposure to dabigatran) was 3.04% and the “% patients with a wet AMD diagnosis” value ([1]; <1 year exposure to dabigatran) was 0.75%. The “% patients with an AMD diagnosis” value ([1]; <1 year exposure to dabigatran) was 7.51%, the “% wet AMD per study year” value ([1]; <1 year exposure to dabigatran) was 0.28% and the “risk of AMD … (odds ratio vs controls)” value ([1]; <1 year of dabigatran) was 0.52. For the same compound, the “% AMD per study year” value ([1]; all dabigatran users) was 3.07%, the “% patients with a wet AMD diagnosis” value ([1]; all dabigatran users) was 0.91% and the “% patients with an AMD diagnosis” value ([1]; all dabigatran users) was 9.1%. The “% wet AMD per study year” value ([1]; all dabigatran users) was 0.28%, the “% patients with an AMD diagnosis” value ([1]; all dabigatran users, listed as Dabigatran) was 9.10% and the “reduction of percent AMD per study year” value ([1]; dabigatran vs control group) was roughly 35%. For the same compound, the “reduction of percent patients with a wet AMD diagnosis” value ([1]; dabigatran vs control group) was roughly 60%, the “hazard ratio, time to first recorded diagnosis of unspecified AMD” value ([1]; dabigatran vs matched controls, P<0.0001) was 0.63 and the “Days to AMD, Mean” value ([1]; dabigatran-exposed subjects, n 3810) was 562 days. For the same compound, the “Wet Days, Mean” value ([1]; dabigatran-exposed subjects, n 38399) was 1047 days, the “Dry Days, Mean” value ([1]; dabigatran-exposed subjects, n 41511) was 1011 days and the “AMD Days, Mean” value ([1]; dabigatran-exposed subjects, n 41860) was 1007 days. For the same compound, the “odds ratio (OR) of AMD” value ([1]; multivariable logistic regression controlling for age, sex, days in study, CI 0.55-0.61) was 0.58, the “reduction of CNV lesion sizes” value ([2]; dabigatran from 2 days prior to CNV induction through angiogenesis phase, OCT day 5, insignificant, P=0.2) was roughly 15% and the “CNV lesion size at final time point” value ([2]; dabigatran from day 5 through repair phase, day 23, P<0.02) was “significantly smaller lesions”. For the same compound, the “CNV lesion response over time (repair)” value ([2]; repair phase days 5-23, repeated measure ANOVA P<0.0001) was “significant effect of treatment; also recorded: acceleration of repair”, the “reduction of thrombin-induced CTGF expression” value [3] was 3.2 fold and the “reduction of C5b-9 deposition” value [4] was roughly 50%. For the same compound, the “reduction of C3d deposition” value [4] was roughly 60%.
